test system: V79; assay: Cytotoxicity against Chinese hamster lung fibroblasts (V79 cells) was determined by a clonogenic assay (colonies containing >50 cells were counted and surviving fractions (SF) calculated after 2 hr incubation); format: functional, Cricetulus griseus

SMILES | Surviving fraction
Cn1cc(CC(=O)O)c2ccccc21 | 0.01
O=C(O)Cc1c[nH]c2cc(Cl)ccc12 | <1e-05
O=C(O)Cc1c[nH]c2ccc(I)cc12 | 1
O=C(O)Cc1c[nH]c2ccc(-c3ccccc3)cc12 | 1
Cn1cc(CC(=O)O)c2ccc(Cl)cc21 | 1
O=C(O)Cc1c[nH]c2cccc(Cl)c12 | 1
O=C(O)Cc1c[nH]c2ccc(F)cc12 | <1e-05
O=C(O)Cc1c[nH]c2c(Cl)cccc12 | 4e-05
Cc1ccc2[nH]cc(CC(=O)O)c2c1 | 1
COc1ccc2[nH]c(C)c(CC(=O)O)c2c1 [DESCHLOROBENZOYL INDOMETHACIN] | 0.04
O=C(O)Cc1c[nH]c2cccc(F)c12 | 9e-05
O=C(O)Cc1c[nH]c2ccc(Cl)cc12 | 0.003
Cc1cc(F)c2[nH]cc(CC(=O)O)c2c1 | 1
COc1ccc2[nH]cc(CC(=O)O)c2c1 | 0.2
O=C(O)Cc1c[nH]c2ccc(-c3ccc(Cl)cc3)cc12 | 1
O=C(O)Cc1c[nH]c2c(F)cc(Cl)cc12 | 1
Cc1[nH]c2ccccc2c1CC(=O)O | 0.004
O=C(O)Cc1c[nH]c2cc(F)ccc12 | 0.01
Cc1ccc(F)c2[nH]cc(CC(=O)O)c12 | 1
Cn1cc(CC(=O)O)c2cc(F)ccc21 | 1
O=C(O)Cc1c[nH]c2cc(Cl)cc(Cl)c12 | 1
O=C(O)Cc1c[nH]c2ccccc12 [INDOLE-3-ACETIC ACID] | 0.01
Cc1[nH]c2ccc(F)cc2c1CC(=O)O | 1
O=C(O)Cc1c[nH]c2ccc(OC(F)(F)F)cc12 | 1

test system: not listed separately; assay: Rate constant for oxidation by HRP (horseradish peroxidase) was determined

SMILES | Rate constant (k)
COc1ccc2[nH]c(C)c(CC(=O)O)c2c1 [DESCHLOROBENZOYL INDOMETHACIN] | 1710 Ie3 M-1 s-1
O=C(O)Cc1c[nH]c2ccc(-c3ccc(Cl)cc3)cc12 | 103 Ie3 M-1 s-1
Cc1[nH]c2ccccc2c1CC(=O)O | 435 Ie3 M-1 s-1

test system: V79; assay: Cytotoxicity against Chinese hamster lung fibroblasts (V79 cells) was determined by a clonogenic assay and colonies containing >50 cells were counted and surviving fractions (SF) calculated after 2 h incubation at 50 uM of prodrug; format: functional, Cricetulus griseus

SMILES | Surviving fraction
O=C(O)Cc1c[nH]c2cc(Cl)ccc12 | 0.00085

Reference: ChEMBL document CHEMBL1135317, “Halogenated indole-3-acetic acids as oxidatively activated prodrugs with potential for targeted cancer therapy” (2002)
